Among the test systems are SW-620; SNB-19; Malme-3M; OVCAR-4; LOX IMVI; SK-MEL-5; IGROV-1; HCT-116; MDA-MB-435; CAKI-1; A498; MDA-MB-231; UO-31; DU-145; SR; HCC 2998; Hs-578T; MCF7; CCRF-CEM.
Test in all cases: NCI-60 cell line screen, 48 h

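Growth conditions: 96-well plates. Treatment: test compound, 48 hours, 5 concentrations. Analysis: linear interpolation between bracketing concentrations; unreached endpoints set to highest concentration. GI50 marks 50% less growth.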 The source made the active and inactive calls. Cut-off read from the data, not from the text of the source: active = GI50 up to about 1.1 µM and inactive = higher.

Take `CCCCCCCCCC(=O)NC(CCC(=O)N(CCNC(=O)c1nc(-c2ccccc2)oc1-c1ccccc1)Cc1ccccc1)C(=O)O` (stereo not drawn): the GI50 is 23.3 µM (inactive) with SW-620; 17.4 µM (inactive) in the assay on SNB-19; 16.4 µM (inactive) in the assay with Malme-3M; 20.5 µM (inactive) in the assay with OVCAR-4; 18.6 µM (inactive) in the assay with LOX IMVI; 16.2 µM (inactive) with SK-MEL-5. For the same compound, the GI50 in the assay with IGROV-1 is 19.5 µM (inactive); with HCT-116 it was 17.7 µM (inactive); in the assay with MDA-MB-435, 18.7 µM (inactive); in the assay with CAKI-1, 16.7 µM (inactive); with A498, 21.2 µM (inactive); with MDA-MB-231, 19.9 µM (inactive). Moreover, the GI50 in the assay with UO-31 was 15.2 µM (inactive); in the assay on DU-145, 20.3 µM (inactive).
With `Nc1nc(Cc2ccccc2)nc(Cc2ccccc2)c1-c1ccccc1`, the GI50 with SW-620 is 33.9 µM (inactive); with SNB-19 it was 75.7 µM (inactive); with Malme-3M it was 20.4 µM (inactive); with SR, 20.8 µM (inactive); in the assay with OVCAR-4, 38.5 µM (inactive); in the assay with LOX IMVI it was 21.3 µM (inactive). The GI50 was 46.6 µM (inactive) with HCC 2998; 15.5 µM (inactive) in the assay with SK-MEL-5; 26.4 µM (inactive) in the assay on IGROV-1; 19.5 µM (inactive) in the assay on HCT-116; 22.9 µM (inactive) in the assay with MDA-MB-435; 39.5 µM (inactive) in the assay with CAKI-1. The GI50 in the assay on A498 was 26 µM (inactive); with MDA-MB-231, 18.7 µM (inactive); in the assay on UO-31 it was 27 µM (inactive); in the assay with DU-145, 22.8 µM (inactive); with Hs-578T, 85.7 µM (inactive).
For `O=C(Nc1ccccc1)N1N=C(c2ccccc2)C1c1ccccc1` (stereo not drawn), the GI50 in the assay on SW-620 was 35.8 µM (inactive); in the assay on SNB-19, 27.7 µM (inactive); with Malme-3M it was 30.5 µM (inactive); with OVCAR-4 it was 41.1 µM (inactive); with LOX IMVI, 29.9 µM (inactive); in the assay with HCC 2998, 31.3 µM (inactive). The GI50 in the assay with MCF7 was 20.2 µM (inactive); in the assay on SK-MEL-5 it was 22.1 µM (inactive); in the assay with IGROV-1 it was 40.4 µM (inactive); in the assay with HCT-116 it was 17.9 µM (inactive); with CAKI-1 it was 30.2 µM (inactive); with A498, 18.5 µM (inactive). Besides, the GI50 was 62.1 µM (inactive) with MDA-MB-231, 15.2 µM (inactive) in the assay with UO-31, > 100 µM (inactive) in the assay with DU-145 and 24.2 µM (inactive) with Hs-578T.
In the case of `CN(C)CCCN1c2ccc3ccccc3c2Sc2cccc(Cl)c21`, the GI50 is 2.04 µM (inactive) in the assay with SW-620; 5.87 µM (inactive) in the assay on SNB-19; 5.13 µM (inactive) in the assay on Malme-3M; 4.4 µM (inactive) in the assay with OVCAR-4; 1.97 µM (inactive) in the assay with LOX IMVI; 1.61 µM (inactive) in the assay with HCC 2998. Besides, the GI50 in the assay with SK-MEL-5 was 3.83 µM (inactive); in the assay with IGROV-1, 1.54 µM (inactive); in the assay with HCT-116, 3.79 µM (inactive); in the assay with MDA-MB-435, 1.98 µM (inactive); in the assay on CAKI-1, 5.33 µM (inactive); with CCRF-CEM, 1.52 µM (inactive). The GI50 was 9.82 µM (inactive) with A498; 2.32 µM (inactive) with MDA-MB-231; 2.79 µM (inactive) in the assay with UO-31; 4.54 µM (inactive) with DU-145; 0.665 µM (active) with Hs-578T.
For the compound `CCOC(=O)c1cc(-c2ccc(OC)cc2)c([N+](=O)[O-])n1C`, the GI50 in the assay on SNB-19 is > 10 µM (inactive); with Malme-3M, > 10 µM (inactive); in the assay on SR, 9.1 µM (inactive); with OVCAR-4 it was > 10 µM (inactive); in the assay on HCC 2998, > 10 µM (inactive); with IGROV-1, > 10 µM (inactive). For the same compound, the GI50 in the assay with HCT-116, with MDA-MB-435, in the assay with CCRF-CEM, in the assay on UO-31, with DU-145 and in the assay with Hs-578T was > 10 µM (inactive) each time.
Turning to `CC(C)[Si](OC12CCC(CC1O)CC2CO)(C(C)C)C(C)C` (stereo not drawn), the GI50 was 21.1 µM (inactive) with SW-620; 15.3 µM (inactive) in the assay on SNB-19; 7.55 µM (inactive) in the assay with SR; 11.5 µM (inactive) in the assay on OVCAR-4; 12 µM (inactive) in the assay with MCF7; 18.3 µM (inactive) in the assay with SK-MEL-5. The GI50 was 8 µM (inactive) with HCT-116; 16.1 µM (inactive) with MDA-MB-435; 18.7 µM (inactive) in the assay with CAKI-1; 13.4 µM (inactive) with CCRF-CEM; 16.7 µM (inactive) in the assay on A498; 19.7 µM (inactive) in the assay with MDA-MB-231. Besides, the GI50 was 13.9 µM (inactive) in the assay with UO-31 and 16.9 µM (inactive) in the assay with DU-145.
For `CN1C(C(=O)Nc2ccccn2)=C(O)c2ccccc2S1(=O)=O` [PIROXICAM], the GI50 with SW-620, with SNB-19, in the assay with Malme-3M, in the assay with SR, with OVCAR-4 and in the assay on LOX IMVI was > 100 µM (inactive) in each case. The GI50 in the assay on MCF7, with SK-MEL-5, in the assay on HCT-116, in the assay on MDA-MB-435, in the assay on CAKI-1 and in the assay with CCRF-CEM was > 100 µM (inactive) throughout. Also, the GI50 with UO-31 and in the assay on DU-145 was > 100 µM (inactive) each time.
As for `Cc1ccc(-n2cc(-c3ccc(Cl)cc3)c3c(NN)ncnc32)cc1`, the GI50 in the assay on SW-620 is 6.07 µM (inactive); with SNB-19, 2.93 µM (inactive); with Malme-3M it was 3.1 µM (inactive); in the assay with SR, 3.41 µM (inactive); with OVCAR-4, 1.73 µM (inactive); in the assay on LOX IMVI, 4.68 µM (inactive). The GI50 is 2.89 µM (inactive) in the assay on HCC 2998; 1.57 µM (inactive) with SK-MEL-5; 1.85 µM (inactive) in the assay with IGROV-1; 2.4 µM (inactive) with HCT-116; 4.65 µM (inactive) in the assay on MDA-MB-435; 4.33 µM (inactive) in the assay with CAKI-1. The GI50 in the assay on CCRF-CEM was 0.566 µM (active); in the assay with MDA-MB-231, 6.89 µM (inactive); with UO-31, 3.82 µM (inactive); with DU-145, 3.49 µM (inactive).
Consider `CCOC(=O)C1=C(C)N(c2ccc(C)cc2)C2(O)C=CC(O)=C3C(=O)c4ccccc4C(=O)C312` (stereo not drawn), for which the GI50 in the assay with SW-620 is 28.1 µM (inactive); in the assay on SNB-19 it was 24.4 µM (inactive); in the assay with Malme-3M, 20.6 µM (inactive); with SR, 0.635 µM (active); with OVCAR-4, 25 µM (inactive); in the assay on LOX IMVI, 25.2 µM (inactive). Moreover, the GI50 in the assay with HCC 2998 was 29.3 µM (inactive); in the assay on MCF7, 23.3 µM (inactive); with SK-MEL-5 it was 19.7 µM (inactive); in the assay on IGROV-1 it was 19.5 µM (inactive); in the assay with HCT-116, 48.5 µM (inactive); with MDA-MB-435, 36.2 µM (inactive). Also, the GI50 in the assay with CAKI-1 was 32.2 µM (inactive); with CCRF-CEM, 5.05 µM (inactive); with A498, 29.4 µM (inactive); in the assay on MDA-MB-231, 34.4 µM (inactive); in the assay on UO-31, 17.7 µM (inactive); with DU-145 it was 23.6 µM (inactive).

(Values after ChEMBL document CHEMBL1201862, “PubChem BioAssay data set” (2004).)
